Test results from patent US6599917B1, “Quinuclidine compounds and drugs containing the same as the active ingredient” (priority 1999, dated 2003).

Key:
cholesterol biosynthesis [1] = assay: Measurement of cholesterol biosynthesis inhibitive activity in a rat liver cell; type: cell-based; conditions: isolated rat liver cells, [1-14C]acetic acid added 10 minutes after the specimen
Experimental: (§1) Measurement of Cholesterol and Triglyceride Biosynthesis Inhibitive Activities in a Rat Liver Cell
(§2) A liver cell was isolated from a male SD rat according to a usual method (collagenase perfusion method) and subjected to an experiment.
(§3) The isolated liver cells were planted in an amount of 500 μ1 every well on a Type collagen coated 24 well plate (cell density: 4×10^5 cell/ml). As the cell culture solution, a Williams'E medium (adjusted to pH 7.4) containing 10% FCS, 1 μM insulin, 1 μM dexamethasone, 100 units/ml penicillin and 10 μg/ml streptomycin was used. After the liver cells were incubated in a CO2 incubator for 2 hours, unstuck cells were removed and the liver cells were further incubated overnight.
(§4) After the culture medium was exchanged, the specimen diluted in a 10% DMSO-90% cell culture solution was added to each well in an amount of 5 μ1. DMSO (final concentration: 0.1%) was added to a control group. A [1-^14C]Acetic acid, sodium salt (5 μCi/well) was added to the media 10 minutes and 4 hours after the specimen was added for the measurement of cholesterol synthesis inhibitive action and for the measurement of triglyceride synthesis inhibitive action respectively, followed by culturing for further 2 hours.
(§5) After the cultivation was finished, the supernatant was removed and the cells were washed using PBS(−)(Phosphate buffered saline (Ca^2+, Mg^2+free) twice. Hexane/isopropyl alcohol (3:2, v/v) was added to the cells and the cells were then allowed to stand for 10 minutes to extract intracellular lipid. The extract was transferred to a glass tube and exsiccated under a nitrogen gas stream. Further, the exsiccated extract was washed with 25 mL of petroleum ether and then dissolved in petroleum ether containing the following components: 0.01% squalene, 0.3% free cholesterol, 0.3% cholesterol acetate, 0.1% triolein, 0.01% farnesol and 0.3% lanosterol.
(§6) The resulting solution was spotted on a TLC plate to perform an isolating operation. The spotted solution was developed for 10 minutes by using toluene/isopropyl ether (1:1, v/v) as the solvents and for further 15 minutes by using heptane in place of the above solvent after it was dried using air.
(§7) After the development was finished, the TLC plate was subjected to iodine color development. After each position of free cholesterol and triolein which were used as standards was confirmed, the image of the TLC plate was transferred to a BAS 2000 (Fuji Film) imaging plate by exposure performed for 16 hours. This transferred image was analyzed using a BAS 2000 IP Reader and an Imaging analyzer II to measure radiative activities contained in the free cholesterol and triglyceride fractions.
(§8) The cholesterol biosynthesis inhibitive activity was expressed by a concentration (IC50) at which 50% of the radiative activity of the control group was inhibited and the triceride biosynthesis inhibitive activity was expressed by an inhibition rate (%) to the control group.

[2] = tested on: triglyceride biosynthesis; assay: Measurement of triglyceride biosynthesis inhibitive activity in a rat liver cell; type: cell-based; conditions: for Triglyceride biosynthesis inhibitive activity inhibition in 1 μM of the specimen: isolated rat liver cells, [1-14C]acetic acid added 4 hours after the specimen, inhibition rate to control group; for inhibition at 1 µM: Rattus norvegicus, 6 h, read-out: Triglyceride biosynthesis inhibitive activity inhibition in 1 μM of the specimen
Experimental: as §1, §2, §3, §4, §5, §6, §7, §8

[3] = biological target: T1, squalene synthesizing enzyme (Rattus norvegicus, UniProt Q02769); assay: Measurement of squalene synthesizing enzyme inhibitive activity by using a rat liver microsome; type: biochemical; conditions: [3H]-farnesylpyrophosphoric acid
T1 construct: The liver was excised from a male Spraugue-Dawly rat; from tissue; host or cells: liver microsome fraction of male Sprague-Dawley rat (8 to 9 weeks)
T1 sequence (Q02769 1-416): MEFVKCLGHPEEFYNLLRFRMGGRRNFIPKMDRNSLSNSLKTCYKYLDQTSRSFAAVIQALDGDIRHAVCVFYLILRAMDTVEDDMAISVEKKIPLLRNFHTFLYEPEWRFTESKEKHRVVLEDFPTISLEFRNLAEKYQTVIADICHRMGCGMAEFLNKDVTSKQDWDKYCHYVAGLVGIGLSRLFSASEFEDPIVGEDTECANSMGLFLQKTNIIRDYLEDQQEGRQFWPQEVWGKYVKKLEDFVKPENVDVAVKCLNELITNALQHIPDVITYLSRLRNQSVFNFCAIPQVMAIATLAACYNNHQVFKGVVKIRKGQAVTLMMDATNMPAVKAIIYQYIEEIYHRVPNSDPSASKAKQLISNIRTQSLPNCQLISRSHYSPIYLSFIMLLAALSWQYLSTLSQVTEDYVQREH
Experimental: Measurement of Squalene Synthesizing Enzyme Inhibitive Activity by Using a Rat Liver Microsome
(I) The reaction was run on a scale of 500 μ1. 200 µl of a solution containing 125 mM tris-hydrochloric acid (pH: 7.3), 2.5 mM magnesium chloride, 5 mM potassium fluoride and 10 mM reduction type nicotinamidoadenine dinucleotide phosphoric acid, 100 µl of the specimen solution with a 5-fold concentration, 100 µl of distilled water and 50 µl of 0.4 to 1 mg/ml rat liver microsome prepared by the following method were mixed.
(II) The above mixture was pre-incubated at 37° C. for 10 minutes and thereafter, 50 µl of 100 μM [^3H]-farnesylpyrophosphoric acid (30 mCi/mmol, NEN) was added to the mixture to start a reaction. The reaction was continued at 37° C. for 10 minutes. 1 ml of ethanol was added to the resulting mixture to terminate the reaction and then 1 ml of distilled water and 3 ml of petroleum ether were added to the reaction solution, which was then shaken for 30 minutes. The water phase was separated from the oil phase, the water phase was frozen at −70° C. in dry ice/methanol and the radiative activity of the organic phase was measured using a liquid scintillator. Or the organic phase was evaporated to dryness using nitrogen gas and the residue was dissolved as a marker in 25 µl of chloroform containing squalene, farnesol and cholesterol. This sample was spotted on a TCL plate (Merck) and developed using heptane for 15 to 20 minutes. A band of squalene was cut from the plate to measure the radiative activity by using a liquid scintillation counter. The data was expressed by a concentration (IC50) at which 50% of the radiative activity of a control group was inhibited.
Method of the Preparation of a Rat Liver Microsome
The following operations were all carried out on ice and the centrifugation was performed at 4° C. The liver was excised from a male Spraugue-Dawly rat (hereinafter referred to as SD rat) (8 to 9 weeks age) and perfused with 1.15% potassium chloride to remove the blood. Then, the liver was minced using a forceps and the minced liver was homogenized using a Teflon homogenizer. The resulting sample was centrifuged at 16000×g twice for 15 minutes. The supernatant was further centrifuged at 105000×g for 60 minutes. The obtained deposit was determined as a microsome fraction, which was then suspended in a 25 mM tris-hydrochloric acid solution. The concentration of protein was measured quantitatively by a Bradford method and the concentration of protein was adjusted to 20 mg/ml by using the same solution. The resulting solution was stored at […].

cholesterol biosynthesis [4] = assay: Measurement of cholesterol biosynthesis inhibitive activity in a rat; type: in vivo; conditions: 2 h, male SD rat, oral, inhibition rate to control group
Experimental: Measurement of Cholesterol Biosynthesis Inhibitive Activity in a Rat
(I) An SPF grade male SD rat (4 weeks age, SLC) was bred for more than one week in a day-night-reversal room and subjected to an experiment made in the daytime. The compound dissolved in a 2% Tween 80 solution was administered (5 ml/kg) to the rat using an oral sonde. After one hour, a [1-^14C]Acetic acid, sodium salt (1.67-2.22 GBq/mmol, 37 MBq/ml, NEN) prepared by diluting to 1.85 MBq/ml by using physiological saline was intraabdominally administered (300 μ1/animal). After one hour, the rat was anesthetized by diethyl ether to carry out exsanguination from the aorta abdominalis. The collected blood was centrifuged at 3000 rpm for 10 minutes to prepare blood plasma.
(II) 1 ml of 4N KOH and 1 ml of ethanol were added to 2 ml of the blood plasma, which was then incubated at 65° C. for one hour and there after, 3 ml of petroleum ether was added. The plasma was shaken for 30 minutes. After the water phase was separated from the organic phase by centrifugation, it was frozen at −80° C. and the radiative activity of the organic phase was measured using a liquid scintillation counter. Or the organic phase was evaporated to dryness using nitrogen gas and the residue was dissolved as a marker in 25 µl of chloroform containing squalene, farnesol and cholesterol. This sample was applied to a TCL plate (Merck) and developed using toluene and isopropyl ether (1:1) for 15 to 20 minutes. A band of cholesterol was cut from the plate to measure the radiative activity by using a liquid scintillation counter. The cholesterol biosynthesis inhibition activity was expressed by an inhibition rate (%) to a control group.

CO[C@H]1CN(c2ccc(C#C[C@@]3(O)CN4CCC3CC4)c(Cc3ccccc3)n2)C[C@H]1OC (relative stereo) [Example 120, (3R)-3-[2-Benzyl-6-(cis-3,4-dimethoxyprrolidine-1-yl)-3-pyridyl]ethynyl-3-quinuclidinol]
IC50 (cholesterol biosynthesis [1]): 75 nM
Triglyceride biosynthesis inhibitive activity inhibition in 1 μM of the specimen [2]: 80%

CO[C@H]1CN(c2ccc(C#C[C@@]3(O)CN4CCC3CC4)c(Cc3ccccc3)n2)C[C@H]1O [Example 106, (3R)-3-[2-Benzyl-6-[(3R,4S)-3-hydroxy-4-methoxypyrrolidine-1-yl)-3-pyridyl]ethynyl-3-quinuclidinol]
IC50 [3]: 6.9 nM
inhibition at 1 µM [2]: 81%

CO[C@@H]1CN(c2ccc(C#C[C@@]3(O)CN4CCC3CC4)c(Cc3ccccc3)n2)C[C@@H]1F [Example 110]
IC50 [3]: 2.1 nM
inhibition at 1 µM [2]: 84%

CO[C@@H]1CN(c2nc(Cc3ccccc3)c(C#C[C@@]3(O)CN4CCC3CC4)cc2Cl)C[C@H]1O [Example 116, (3R)-(3R)-3-[2-Benzyl-5-chloro-6[(3R,4R)-3-hydroxy-4-methoxypyrrolidine-1-yl]-3-pyridyl]ethynyl-3-quinuclidinol]
IC50 [3]: 0.77 nM
IC50 (cholesterol biosynthesis [1]; 10 min): 72 nM

CO[C@@H]1CN(c2nc(Cc3ccccc3)c(C#C[C@@]3(O)CN4CCC3CC4)cc2Br)C[C@H]1O [Example 117, (3R)-3-[2-Benzyl-5-bromo-6-[(3R,4R)-3-hydroxy-4-methoxypyrrolidine-1-yl]-3-pyridyl]ethynyl-3-quinuclidinol]
IC50 [3]: 4.5 nM
IC50 (cholesterol biosynthesis [1]; 10 min): 79 nM

CO[C@H]1C(=O)N(c2ccc(C#C[C@@]3(O)CN4CCC3CC4)c(Cc3ccccc3)n2)C[C@H]1O [Example 124, (3R)-3-[2-Benzyl-6-[(3R,4R)-4-hydroxy-3-methoxy-2-pyrrolidinone-1-yl]-3-pyridyl]ethynyl-3-quinuclidinol]
IC50 [3]: 1.8 nM
IC50 (cholesterol biosynthesis [1]; 10 min): 81 nM
inhibition at 1 µM [2]: 79%

O=C1N(c2ccc(C#C[C@@]3(O)CN4CCC3CC4)c(Cc3ccccc3)n2)CCC12OCCO2 [Example 138, (3R)-3-[2-Benzyl-6-(3,3-ethylenedioxy-2-pyrrolidinone-1-yl)-3-pyridyl]ethynyl-3-quinuclidinol]
IC50 [3]: 0.35 nM
IC50 (cholesterol biosynthesis [1]; 10 min): 14 nM

COC(C)COc1ccc(C#C[C@@]2(O)CN3CCC2CC3)c(Cc2ccccc2)n1 (stereo partly drawn) [Example 148, (3R)-3-[2-Benzyl-6-(2-methoxypropyl)oxy-3-pyridyl]ethynyl-3-quinuclidinol]
inhibition in vivo at 3 mg/kg (cholesterol biosynthesis [4]; dose 3 mg/kg): 92%
IC50 (cholesterol biosynthesis [1]; 10 min): 160 nM

COC(C)COc1ccc(C#C[C@]2(O)CN3CCC2CC3)c(Cc2ccccc2)n1 (stereo partly drawn) [Example 149, (3S)-3-[2-Benzyl-6-(2-methoxypropyl)oxy-3-pyridyl]ethynyl-3-quinuclidinol]
IC50 (cholesterol biosynthesis [1]; 10 min): 590 nM

O[C@]1(C#Cc2ccc(OCCCF)nc2Cc2ccccc2)CN2CCC1CC2 [Example 150, (3R)-3-[2-Benzyl-6-(3-fluoropropyl)oxy-3-pyridyl]ethynyl-3-quinuclidinol]
inhibition in vivo at 1 mg/kg (cholesterol biosynthesis [4]; dose 1 mg/kg): 73%
inhibition at 1 µM [2]: 80%

OCCCOc1ccc(C#C[C@@]2(O)CN3CCC2CC3)c(Cc2ccccc2)n1 [Example 166, (3R)-3-[2-Benzyl-6-(3-hydroxypropyl)oxy-3-pyridyl]ethynyl-3-quinclidinol]
IC50 [3]: 15 nM
inhibition at 1 µM [2]: 82%

O[C@]1(C#Cc2cnc(-c3cccnc3)cc2Cc2ccccc2)CN2CCC1CC2 [Example 176, (3R)-3-[4-Benzyl-2-(3-pyridyl)-5-pyridyl]ethynyl-3-quinuclidinol]
inhibition at 1 µM [2]: 74%

O[C@]1(C#Cc2cnc(-c3ccccn3)cc2Cc2ccccc2)CN2CCC1CC2 [Example 179, (3R)-3-[4-Benzyl-2-(2-pyridyl)-5-pyridyl]ethynyl-3-quinuclidinol]
IC50 (cholesterol biosynthesis [1]; 10 min): 130 nM
inhibition at 1 µM [2]: 84%

O[C@]1(C#Cc2cnc(C3=COCCO3)cc2Cc2ccccc2)CN2CCC1CC2 [Example 186, (3R)-3-[4-Benzyl-2-(1,4-dioxene-2-yl)-5-pyridyl]ethynyl-3-quinuclidinol]
IC50 (cholesterol biosynthesis [1]): 69 nM

(3R)-3-[4-Benzyl-2-[(3R,4R)-3-hydroxy-4-methoxypyrrolidine-1-yl]-3-pyrimidyl]ethynyl-3-quinuclidinol [Example 201]
IC50 [3]: 1.6 nM
Triglyceride biosynthesis inhibitive activity inhibition in 1 μM of the specimen [2]: 85%

(3R)-3-[Benzyl-6-(3,3-ethylenedioxypyrrolidine-1-yl]-3-pyridyl]ethynyl-3-quinuclidinol [Example 118]
IC50 [3]: 2.5 nM
IC50 (cholesterol biosynthesis [1]): 75 nM
Triglyceride biosynthesis inhibitive activity inhibition in 1 μM of the specimen [2]: 85%
